Laboratory results as given in the NIST ThermoML archive (doi:10.1016/j.jct.2012.06.009).
± gives the expanded uncertainty stated by the source.

Assay: activity coefficient (dimensionless); of the first substance listed, at infinite dilution; xn = mol fraction of the nth substance listed
Settings: 101 kPa, Liquid, Chromatography, x1 = 0

Structure (SMILES)	activity coefficient (314.1 K)	activity coefficient (314.24 K)	activity coefficient (333.26 K)	activity coefficient (333.38 K)	activity coefficient (353.25 K)	activity coefficient (353.3 K)	also measured
CCC(C)O (stereo not given) [butan-2-ol] + CCCCCCCCCCCCCC(=O)O	1.17 ± 0.097	1.21 ± 0.1	1.12 ± 0.093	1.11 ± 0.092	1.05 ± 0.087	1.04 ± 0.086	
ClC(Cl)Cl [trichloromethane] + CCCCCCCCCCCCCCCC(=O)O							activity coefficient (340.19 K): 0.748 ± 0.063; activity coefficient (348.01 K): 0.739 ± 0.063; activity coefficient (358.22 K): 0.759 ± 0.064
Cc1ccccc1 [toluene] + CCCCCCCCCCCC(=O)O	1.06 ± 0.088	1.08 ± 0.089	1.07 ± 0.088	1.04 ± 0.086		1.05 ± 0.087	
C=CCCCC [hex-1-ene] + CCCCCCCCCCCC(=O)O							activity coefficient (329.2 K): 1.39 ± 0.12; activity coefficient (343.39 K): 1.39 ± 0.12; activity coefficient (358.06 K): 1.34 ± 0.11
C1CCCCC1 [cyclohexane] + CCCCCCCCCCCCCCCC(=O)O							activity coefficient (340.19 K): 1.03 ± 0.085; activity coefficient (348.01 K): 1.02 ± 0.084; activity coefficient (358.22 K): 1.01 ± 0.083
CCCCO [butan-1-ol] + CCCCCCCCCC(=O)O			1.48 ± 0.13		1.34 ± 0.11	1.32 ± 0.11	activity coefficient (333.35 K): 1.53 ± 0.13
ClC(Cl)Cl [trichloromethane] + CCCCCCCCCCCCCC(=O)O	0.743 ± 0.063	0.743 ± 0.063	0.739 ± 0.063	0.74 ± 0.063	0.746 ± 0.064	0.727 ± 0.062	
CCc1ccccc1 [ethylbenzene] + CCCCCCCCCCCCCC(=O)O							activity coefficient (338.27 K): 1.06 ± 0.087; activity coefficient (348.3 K): 1.06 ± 0.087; activity coefficient (358.33 K): 1.04 ± 0.085
CCCO [propan-1-ol] + CCCCCCCCCCCC(=O)O	1.76 ± 0.15	1.78 ± 0.15	1.57 ± 0.13	1.6 ± 0.14	1.43 ± 0.12	1.43 ± 0.12	
COc1ccccc1 [anisole] + CCCCCCCCCCCC(=O)O			1.37 ± 0.12		1.33 ± 0.11	1.35 ± 0.11	activity coefficient (343.65 K): 1.35 ± 0.11
C1CCCCC1 [cyclohexane] + CCCCCCCCCCCCCC(=O)O	1.09 ± 0.09	1.09 ± 0.09		1.07 ± 0.088	1.05 ± 0.087	1.02 ± 0.085	
CCC(C)O (stereo not given) [butan-2-ol] + CCCCCCCCCC(=O)O	1.33 ± 0.11	1.35 ± 0.11	1.17 ± 0.097	1.16 ± 0.096	1.05 ± 0.087	1.04 ± 0.085	
CCc1ccccc1 [ethylbenzene] + CCCCCCCCCCCC(=O)O		1.22 ± 0.1	1.2 ± 0.1	1.19 ± 0.099	1.18 ± 0.098	1.18 ± 0.097	
CC(C)O [propan-2-ol] + CCCCCCCCCCCCCCCC(=O)O							activity coefficient (340.19 K): 1.47 ± 0.12; activity coefficient (348.01 K): 1.41 ± 0.12; activity coefficient (358.32 K): 1.29 ± 0.11
CCO [ethanol] + CCCCCCCCCCCCCC(=O)O	1.82 ± 0.16	1.79 ± 0.15	1.67 ± 0.14	1.67 ± 0.14	1.53 ± 0.13	1.52 ± 0.13	
C1CCCCC1 [cyclohexane] + CCCCCCCCCC(=O)O	1.44 ± 0.12	1.46 ± 0.12	1.39 ± 0.12	1.39 ± 0.12	1.35 ± 0.12	1.31 ± 0.11	
COc1ccccc1 [anisole] + CCCCCCCCCCCCCC(=O)O	1.32 ± 0.11	1.3 ± 0.11	1.29 ± 0.11	1.27 ± 0.11	1.24 ± 0.1	1.21 ± 0.1	
ClC=C(Cl)Cl [trichloroethene] + CCCCCCCCCC(=O)O	1.05 ± 0.086	1.04 ± 0.085	1 ± 0.082	1.01 ± 0.083		0.969 ± 0.08	activity coefficient (353.08 K): 0.945 ± 0.078
Cc1ccccc1 [toluene] + CCCCCCCCCCCCCCCC(=O)O							activity coefficient (340.19 K): 0.934 ± 0.077; activity coefficient (348.01 K): 0.935 ± 0.077; activity coefficient (358.22 K): 0.934 ± 0.077
CC(C)CC(C)(C)C [2,2,4-trimethylpentane] + CCCCCCCCCCCC(=O)O	1.75 ± 0.15	1.77 ± 0.15	1.7 ± 0.14	1.72 ± 0.15	1.67 ± 0.14	1.69 ± 0.14	
CCO [ethanol] + CCCCCCCCCCCC(=O)O	1.92 ± 0.17	2.02 ± 0.17		1.79 ± 0.15	1.56 ± 0.13	1.57 ± 0.13	
